Laboratory results: patent US11419869B2, “Dosage forms and regimens for amino acid compounds” (Pliant Therapeutics, Inc., priority 2019, dated 2022)

Experiments:
[1] = target: recombinant human integrin αvβ6 (Homo sapiens (Human), UniProt P06756+P18564); experiment: Solid Phase Integrin αvβ6 Binding Assay (Examples B1, B2); details: TGFβ1 LAP ligand, values given in four ranges, read-out: αvβ6 Inhibition IC50 (nM)-range
How it was run: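 Plates coated with recombinant human αvβ6 (2 μg/mL) compete compound against recombinant TGFβ1 LAP (0.67 μg/mL) in TBS binding buffer with 0.5 mM MnCl2, 2 h at 25 °C. Bound LAP detected with biotin-anti-hLAP and peroxidase-streptavidin; IC50 by four-parameter logistic regression.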

Col1a1 expression [2] = experiment: lung slice Col1a1 expression versus DMSO control slices; details: FIG. 6A; compared to the DMSO vehicle control slices
lung Col1a1 expression [3] = experiment: Precision cut lung slices, chronic bleomycin, versus pirfenidone and nintedanib (Example B10); assay type: cell-based, mice; details: 7 days culture, vs DMSO vehicle, FIG. 6A
Experimental: (§1) Mice (C57BL/6) were administered 3 U/kg of bleomycin (Teva Pharmaceuticals; North Wales, Pa.) on Day 0 and 1 U/kg of bleomycin on days 14, 28, 42 and 56 via oropharyngeal aspiration while under anesthesia. At day 70, 14 days following the final bleomycin insult, precision cut lung slices were obtained. Following euthanization, 2% low gelling temp agarose was injected into the mouse lungs via the trachea. […] The lobes were then subjected to precision slicing to obtain samples for culture using a microtome (Compresstome VF-300-0Z, Precisionary; Greenville, N.C.). Individual slices were distributed in a multiwell culture plate and cultured for 7 days under control (DMSO) and test compound conditions. The viability of the slices over the course of culturing was confirmed by WST-1 assay of mitochondrial activity.
During the culture period, slices in the control group were treated with DMSO and slices in the test group were treated with a DMSO solution of one of compound 5; nintedanib; pirfenidone; a combination of nintedanib and compound 5; a combination of pirfenidone and compound 5; or the small molecule ALK5 inhibitor. Compound 5 was […] effective to equal or exceed its respective IC50 values at αvβ6 and αvβ1. The small molecule ALK5 inhibitor was analyzed at […] its reported IC50 value. Nintendanib and pirfenidone were analyzed at concentrations 10× their reported therapeutic concentrations.

COL1A1 expression [4] = experiment: Precision cut lung slices from human IPF explants, COL1A1 expression (Example B11); assay type: cell-based; details: for expression of COL1A1 (treatment alone): PCLS from 5-7 IPF lung samples, seven days, nintedanib 75 nM, pirfenidone 50 μm
Source text: Explanted lung tissue was obtained from human IPF subjects and inflated with agarose as described in the preceding examples. Biopsy cores were obtained from the agarose-inflated lung tissue. The biopsy cores were subjected to precision slicing to obtain several hundred μm thick. Individual slices were distributed in a multiwell culture plate and cultured for […] under control (DMSO) and test compound conditions. The viability of the slices over the course of culturing was confirmed by WST-1 assay of mitochondrial activity.
PCLS from 5-7 idopathic pulmonary fibrosis (IPF) lung tissue samples were cultured for seven days with one of: DMSO; Compound 5 at 200 nM; nintedanib at 75 nM; pirfenidone at 50 μm; a combination of Compound 5 at 200 nM and nintedanib at 75 nM; a combination of Compound 5 at 200 nM and pirfenidone at […]; or an Alk5 inhibitor at 1 μm. […] FIG. 6D is a bar graph showing relative expression of COL1A1 in precision cut lung slices (PCLS) from idopathic pulmonary fibrosis (IPF) lung tissue upon exposure to Comopund 5, clinical standard of care compounds nintedanib (Nin) and pirfenidone (Pirf), and an ALK5 inhibitor, all versus DMSO control.
PCLS from a single IPF lung tissue sample were cultured for seven days with Compound 5 at concentrations of […], 2 nM, 60 nM, 200 nM, and 1 μM, along with 0.1% DMSO control and an Alk5 inhibitor at 1 μM. […] COL1A1 expression is also graphed for the PCLS in the presence of 0.1% DMSO control, and an Alk5 inhibitor at 1 μM.

[5] = treatment of IPF; cited from earlier work
[6] = test system: Type I Collagen gene Col1a1 expression; experiment: Precision cut lung slices, mice under acute bleomycin exposure (Example B8); assay type: cell-based; details: 3 days culture, normalized to DMSO, FIG. 5A
Experimental: Mice (C57BL/6) were administered 3 U/kg of bleomycin (Teva Pharmaceuticals; North Wales, Pa.) on day 0 via oropharyngeal aspiration while under anesthesia. On day 14, precision cut lung slices were obtained. Following euthanization, 2% low gelling temp agarose was injected into the mouse lungs via the trachea. […] The lobes were then subjected to precision slicing to obtain samples for culture using a microtome (Compresstome VF-300-0Z, Precisionary; Greenville, N.C.). Individual slices were distributed in a multiwell culture plate and cultured for 3 days under control (DMSO) and test compound conditions.

lung Col1a1 expression [7] = experiment: Precision cut lung slices, mice under chronic bleomycin exposure (Example B9); assay type: cell-based; details: 7 days culture, normalized to DMSO, FIG. 5B
Experimental: as §1, with “after” for “following”
During the culture period, slices in the control group were treated with DMSO and slices in the test group were treated with a DMSO solution of one of: the selective antibody αvβ6 inhibitor 3G9; the αvβ1-selective small molecule inhibitor; a combination of the selective antibody αvβ6 inhibitor 3G9 and the αvβ1-selective small molecule inhibitor; compound 5; and the small molecule ALK5 inhibitor. The selective αvβ1 and αvβ6 integrin inhibitors were analyzed at ≥their respective IC90 concentrations for inhibition of TGF-beta activation. […]

Chain of recombinant human integrin αvβ6 (P06756 31-992): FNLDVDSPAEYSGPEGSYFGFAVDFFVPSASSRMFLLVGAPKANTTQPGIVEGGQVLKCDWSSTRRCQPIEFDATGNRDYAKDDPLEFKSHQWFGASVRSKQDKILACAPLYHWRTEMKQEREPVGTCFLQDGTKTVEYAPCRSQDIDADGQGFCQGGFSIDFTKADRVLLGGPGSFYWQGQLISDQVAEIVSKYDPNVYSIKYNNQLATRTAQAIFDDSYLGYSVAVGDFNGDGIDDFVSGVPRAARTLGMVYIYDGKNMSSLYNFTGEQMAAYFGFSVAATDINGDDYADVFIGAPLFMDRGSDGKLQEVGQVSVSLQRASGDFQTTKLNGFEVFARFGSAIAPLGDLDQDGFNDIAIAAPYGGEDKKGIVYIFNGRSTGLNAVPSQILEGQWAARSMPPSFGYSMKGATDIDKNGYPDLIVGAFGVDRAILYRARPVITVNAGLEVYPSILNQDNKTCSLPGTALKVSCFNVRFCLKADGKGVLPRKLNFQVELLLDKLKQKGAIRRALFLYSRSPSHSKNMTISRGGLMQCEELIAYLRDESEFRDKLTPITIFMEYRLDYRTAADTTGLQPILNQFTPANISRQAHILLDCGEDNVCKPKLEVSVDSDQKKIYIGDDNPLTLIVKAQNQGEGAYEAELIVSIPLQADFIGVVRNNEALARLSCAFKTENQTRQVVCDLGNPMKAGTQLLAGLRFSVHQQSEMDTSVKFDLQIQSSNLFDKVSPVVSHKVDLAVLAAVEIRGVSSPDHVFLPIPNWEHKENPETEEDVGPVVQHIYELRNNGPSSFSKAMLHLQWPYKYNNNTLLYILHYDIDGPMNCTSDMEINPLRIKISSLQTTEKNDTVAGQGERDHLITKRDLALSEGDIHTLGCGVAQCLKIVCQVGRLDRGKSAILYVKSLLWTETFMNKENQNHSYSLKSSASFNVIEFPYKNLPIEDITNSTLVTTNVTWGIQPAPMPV
Chain of recombinant human integrin αvβ6 (P18564 22-707): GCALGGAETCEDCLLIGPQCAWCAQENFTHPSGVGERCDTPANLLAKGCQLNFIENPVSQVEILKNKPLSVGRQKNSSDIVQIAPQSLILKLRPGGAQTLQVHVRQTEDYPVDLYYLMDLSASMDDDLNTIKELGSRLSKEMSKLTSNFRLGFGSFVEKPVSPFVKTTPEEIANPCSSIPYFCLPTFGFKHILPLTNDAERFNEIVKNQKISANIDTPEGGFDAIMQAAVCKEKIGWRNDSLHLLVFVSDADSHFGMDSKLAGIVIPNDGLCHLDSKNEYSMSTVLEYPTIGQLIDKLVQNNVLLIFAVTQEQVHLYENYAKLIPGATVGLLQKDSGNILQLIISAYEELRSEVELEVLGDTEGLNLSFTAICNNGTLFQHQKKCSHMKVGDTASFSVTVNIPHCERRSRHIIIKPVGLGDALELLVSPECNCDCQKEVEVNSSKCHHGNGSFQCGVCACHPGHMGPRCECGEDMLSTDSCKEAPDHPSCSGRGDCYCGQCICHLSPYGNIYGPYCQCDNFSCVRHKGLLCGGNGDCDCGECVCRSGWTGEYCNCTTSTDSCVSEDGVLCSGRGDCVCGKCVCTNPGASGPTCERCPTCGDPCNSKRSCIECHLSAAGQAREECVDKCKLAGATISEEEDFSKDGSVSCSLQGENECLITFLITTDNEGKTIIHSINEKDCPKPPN

With `O=C(O)[C@H](CCN(CCCCc1ccc2c(n1)NCCC2)CC(CO)CO)Nc1ncnc2ccccc12` [Compound 130, (S)-4-((3-hydroxy-2-(hydroxymethyl)propyl) (4-(5,6,7,8-tetrahydro-1,8-naphthyridin-2-yl)butyl)amino)-2-(quinazolin-4-ylamino) butanoic acid] as the compound, how does the IC50 [1] read?
Its IC50 is less than 50 nM.

With `Cn1ncc2c(N[C@@H](CCN(CCCF)CCCCc3ccc4c(n3)NCCC4)C(=O)O)ncnc21` [Compound 136, (S)-4-((3-fluoropropyl) (4-(5,6,7,8-tetrahydro-1,8-naphthyridin-2-yl)butyl)amino)-2-((1-methyl-1H-pyrazolo[3,4-d]pyrimidin-4-yl)amino) butanoic acid] as the compound, how does the IC50 [1] read?
The IC50 was less than 50 nM.

Which IC50 [1] does the source give for `O=C(O)[C@H](CCN(CCCF)CCCCc1ccc2c(n1)NCCC2)Nc1ncc(C(F)(F)F)cn1` [Compound 137, (S)-4-((3-fluoropropyl) (4-(5,6,7,8-tetrahydro-1,8-naphthyridin-2-yl)butyl)amino)-2-((5-(trifluoromethyl)pyrimidin-2-yl)amino) butanoic acid] here?
Its IC50 is less than 50 nM.

Which IC50 [1] does the source give for `N#Cc1cnc(N[C@@H](CCN(CCCCc2ccc3c(n2)NCCC3)CCOc2ccc(F)cc2)C(=O)O)nc1` [Compound 138, (S)-2-((5-cyanopyrimidin-2-yl)amino)-4-((2-(4-fluorophenoxy)ethyl) (4-(5,6,7,8-tetrahydro-1,8-naphthyridin-2-yl)butyl)amino) butanoic acid] here?
The IC50 was less than 50 nM.

For `O=C(O)[C@H](CCN(CCCCc1ccc2c(n1)NCCC2)CCOc1ccc(F)cc1)Nc1ncc(C(F)(F)F)cn1` [Compound 139, (S)-4-((2-(4-fluorophenoxy)ethyl) (4-(5,6,7,8-tetrahydro-1,8-naphthyridin-2-yl)butyl)amino)-2-((5-(trifluoromethyl)pyrimidin-2-yl)amino) butanoic acid], which IC50 [1] is on record?
The IC50 was less than 50 nM.

For `CN(C)C(=O)CN(CCCCc1ccc2c(n1)NCCC2)CC[C@H](Nc1ncnc2c1cnn2C)C(=O)O` [Compound 140, (S)-4-((2-(dimethylamino)-2-oxoethyl) (4-(5,6,7,8-tetrahydro-1,8-naphthyridin-2-yl)butyl)amino)-2-((1-methyl-1H-pyrazolo[3,4-d]pyrimidin-4-yl)amino) butanoic acid], which IC50 [1] is on record?
The IC50 was less than 50 nM.

Which IC50 [1] does the source give for `O=C(O)[C@H](CCN(CCCCc1ccc2c(n1)NCCC2)CC(F)F)Nc1cc(-c2ccccc2)ncn1` [Compound 142, (S)-4-((2,2-difluoroethyl) (4-(5,6,7,8-tetrahydro-1,8-naphthyridin-2-yl)butyl)amino)-2-((6-phenylpyrimidin-4-yl)amino) butanoic acid] here?
The IC50 was greater than 1000 nM.

Which IC50 [1] does the source give for `CN(C)C(=O)CN(CCCCc1ccc2c(n1)NCCC2)CC[C@H](Nc1ccnc(C(F)(F)F)n1)C(=O)O` [Compound 145, (S)-4-((2-(dimethylamino)-2-oxoethyl) (4-(5,6,7,8-tetrahydro-1,8-naphthyridin-2-yl)butyl)amino)-2-((2-(trifluoromethyl)pyrimidin-4-yl)amino) butanoic acid] here?
Its IC50 is less than 50 nM.

For `O=C(O)[C@H](CCN(CCCCc1ccc2c(n1)NCCC2)CC(F)F)Nc1ncc(C2CC2)cn1` [Compound 146, (S)-2-((5-cyclopropylpyrimidin-2-yl)amino)-4-((2,2-difluoroethyl) (4-(5,6,7,8-tetrahydro-1,8-naphthyridin-2-yl)butyl)amino) butanoic acid], which IC50 [1] is on record?
Its IC50 is greater than 1000 nM.

Which “lung Col1a1 expression” value (Col1a1 expression [2]) does the source give for `COC(=O)c1ccc2c(c1)NC(=O)/C2=C(\Nc1ccc(N(C)C(=O)CN2CCN(C)CC2)cc1)c1ccccc1` [nintedanib] here?
Its value is “slight increase”.

And the “lung slice Col1a1 expression” value (lung Col1a1 expression [3])?
The value was “slight increase”.

What about the “expression of COL1A1 (treatment alone)” value (COL1A1 expression [4]) of the same compound?
Its value is “did not significantly reduce”.

What about the side effects [5] of the same compound?
The side effects was “numerous side effects”.

What about the therapeutic efficacy [5] of the same compound?
The therapeutic efficacy was “less therapeutic efficacy than desired”.

With `Cc1ccc(=O)n(-c2ccccc2)c1` [pirfenidone] as the compound, how does the “lung Col1a1 expression” value (Col1a1 expression [2]) read?
Its value is “slight increase”.

What about the “lung slice Col1a1 expression” value (lung Col1a1 expression [3]) of the same compound?
Its value is “slight increase”.

What about the “expression of COL1A1 (treatment alone)” value (COL1A1 expression [4]) of the same compound?
Its value is “did not significantly reduce”.

And the side effects [5]?
Its side effects is “numerous side effects”.

What about the therapeutic efficacy [5] of the same compound?
The therapeutic efficacy was “less therapeutic efficacy than desired”.

Which “Type I Collagen gene Col1a1 expression” value [6] does the source give for `CC(C)(C)c1cc(Br)cc([C@H](CC(=O)O)NC(=O)CNC(=O)c2cc(O)cc(NC3=NCC(O)CN3)c2)c1` (stereo partly drawn) [second pan-av small molecule inhibitor, (3S)—N-[3-hydroxy-5-[(1,4,5,6-tetrahydro-5-hydroxy-2-pyrimidinyl)amino]benzoyl]glycyl-3-[3-bromo-5-(1,1-dimethylethyl)phenyl]-β-alanine] here?
The value was “reduced Type I Collagen gene Col1a1 expression”.

With `Cc1cccc(-c2n[nH]cc2-c2ccc(F)c(-c3cnn(CCO)c3)c2)n1` [small molecule ALK5 inhibitor, 4-[2-Fluoro-5-[3-(6-methyl-2-pyridinyl)-1H-pyrazol-4-yl]phenyl]-1H-pyrazole-1-ethanol, reference compound] as the compound, how does the “Type I Collagen gene Col1a1 expression” value [6] read?
Its value is “greatest decrease”.

And the “lung Col1a1 expression” value (lung Col1a1 expression [7])?
Its value is “greatest decrease”.

And the “lung slice Col1a1 expression” value (lung Col1a1 expression [3])?
The value was “substantial, statistically significant (p<0.0001 vs vehicle) decrease”.

What about the “lung Col1a1 expression” value (COL1A1 expression [4]; human IPF slices, 3 days, 3G9 ≥400 ng/mL, compound 5 179 nM, ALK5 inhibitor 1 μM, FIG. 6C) of the same compound?
Its value is “decrease in lung Col1a1 expression”.
